{"source": "patent US20250205193A1", "about": "“THERAPEUTIC COMPOUND AND SALTS” (Regents of the University of Minnesota, priority 2022, published 2025)", "key": {"67NR cells": {"test_system": "67NR cells", "experiment": "Seahorse XFe96 respiratory experiments in permeabilized cells for pyruvate driven respiration (67NR)", "format": "cell-based", "settings": "read-out: inhibits pyruvate driven respiration, IC50", "protocol": "4T1 cells were seeded (20,000 cells/well) onto Seahorse XFe96 well plates and incubated overnight in growth media at 37° C. and 5% CO2 for adherence. […] For pyruvate driven respiration experiments, test compound was injected in port A, followed by rPFO (1 nM) in port B, followed by respective substrate cocktails (FCCP stimulated) in port C, and rotenone and antimycin A (0.5 μM) in port D. Final substrate concentrations for specific tests were as follows: (5 mM pyruvate, 0.5 mM malate, 2 mM dichloroacetate (DCA); 10 mM glutamate, 2 mM DCA; 2 μM rotenone)."}, "[1]": {"settings": "for T1/2: PO 5.00 mg/kg; for F: in vivo, po, 5 mg/kg", "quoted_text": "(§1) The pharmacokinetics and oral bioavailability of the compound of formula (I) were investigated in mouse following single intravenous and oral gavage."}, "mice": {"test_system": "mice", "experiment": "Single dose acute toxicity study", "format": "in vivo", "settings": "single dose 40 mg/kg PO", "description": "Additionally, a single dose acute toxicity study (40 mg/kg PO, q.d.) was carried out."}, "in vivo": {"experiment": "in vivo", "settings": "mouse", "quoted_text": "as §1"}, "Balb-C mice": {"test_system": "Balb-C mice", "experiment": "Maximum tolerated dose study", "format": "in vivo", "settings": "up to 40 mg/kg PO, q.d.", "description": "A maximum tolerated dose study was conducted in Balb-C mice."}}, "note": "Read-outs that look alike come from different tables or passages of the source.", "data": [{"smiles": "CN(Cc1ccc(C(F)(F)F)cc1)c1ccc2cc(C(=O)O)c(=O)oc2c1", "note": "[MN-D7]", "values": [{"measurement": "IC50", "setting": "67NR cells", "value": "17.8 ± 4.9", "unit": "nM"}, {"measurement": "HL_Lambda T1/2", "setting": "[1]; G1-Male, IV 1.0 mg/kg", "value": 3.65, "unit": "h"}, {"measurement": "T1/2", "setting": "[1]; G2-Female", "value": 4.41, "unit": "h"}, {"measurement": "T1/2", "setting": "[1]; G2-Male", "value": 4.04, "unit": "h"}, {"measurement": "F", "setting": "[1]; female, mouse", "value": 123.84, "unit": "%"}, {"measurement": "F", "setting": "[1]; male, mouse", "value": 124.96, "unit": "%"}, {"measurement": "mean terminal half-life", "setting": "[1]; mouse, female, IV dose", "value": 3.15, "unit": "h"}, {"measurement": "toxicity upon examination of internal organs", "setting": "mice", "value": "did not cause any toxicity issues"}, {"measurement": "AUC(0-inf)", "setting": "in vivo; female, iv, 1 mg/kg", "value": 626, "unit": "ng·h/mL"}, {"measurement": "AUC(0-t)", "setting": "in vivo; female, iv, 1 mg/kg", "value": 552, "unit": "ng·h/mL"}, {"measurement": "C0", "setting": "in vivo; female, iv, 1 mg/kg", "value": 226, "unit": "ng/mL"}, {"measurement": "Cmax", "setting": "in vivo; female, iv, 1 mg/kg", "value": 200, "unit": "ng/mL"}, {"measurement": "MRT inf", "setting": "in vivo; female, iv, 1 mg/kg", "value": 4.34, "unit": "h"}, {"measurement": "MRT last", "setting": "in vivo; female, iv, 1 mg/kg", "value": 2.95, "unit": "h"}, {"measurement": "Tmax", "setting": "in vivo; female, iv, 1 mg/kg", "value": 0.08, "unit": "h"}, {"measurement": "clearance", "setting": "in vivo; female, iv, 1 mg/kg", "value": 26.6, "unit": "mL/min/kg"}, {"measurement": "half-life", "setting": "in vivo; female, iv, 1 mg/kg", "value": 3.15, "unit": "h"}, {"measurement": "Vd", "setting": "in vivo; female, iv, 1 mg/kg, Vss_obs Vss", "value": 6.92, "unit": "L/kg"}, {"measurement": "Vd", "setting": "in vivo; female, iv, 1 mg/kg, Vz_obs Vz", "value": 7.26, "unit": "L/kg"}, {"measurement": "bioavailability", "setting": "in vivo; female, po", "value": "~124", "unit": "%"}, {"measurement": "half-life", "setting": "in vivo; female, po", "value": 4.41, "unit": "h"}, {"measurement": "AUC(0-inf)", "setting": "in vivo; female, po, 5 mg/kg", "value": 3480, "unit": "ng·h/mL"}, {"measurement": "AUC(0-t)", "setting": "in vivo; female, po, 5 mg/kg", "value": 3420, "unit": "ng·h/mL"}, {"measurement": "Cmax", "setting": "in vivo; female, po, 5 mg/kg", "value": 1450, "unit": "ng/mL"}, {"measurement": "MRT inf", "setting": "in vivo; female, po, 5 mg/kg", "value": 4.39, "unit": "h"}, {"measurement": "MRT last", "setting": "in vivo; female, po, 5 mg/kg", "value": 3.88, "unit": "h"}, {"measurement": "Tmax", "setting": "in vivo; female, po, 5 mg/kg", "value": 0.08, "unit": "h"}, {"measurement": "half-life", "setting": "in vivo; male, iv", "value": 3.65, "unit": "h"}, {"measurement": "AUC(0-inf)", "setting": "in vivo; male, iv, 1 mg/kg", "value": 486, "unit": "ng·h/mL"}, {"measurement": "AUC(0-t)", "setting": "in vivo; male, iv, 1 mg/kg", "value": 413, "unit": "ng·h/mL"}, {"measurement": "C0", "setting": "in vivo; male, iv, 1 mg/kg", "value": 185, "unit": "ng/mL"}, {"measurement": "Cmax", "setting": "in vivo; male, iv, 1 mg/kg", "value": 160, "unit": "ng/mL"}, {"measurement": "MRT inf", "setting": "in vivo; male, iv, 1 mg/kg", "value": 4.97, "unit": "h"}, {"measurement": "MRT last", "setting": "in vivo; male, iv, 1 mg/kg", "value": 3.17, "unit": "h"}, {"measurement": "Tmax", "setting": "in vivo; male, iv, 1 mg/kg", "value": 0.08, "unit": "h"}, {"measurement": "clearance", "setting": "in vivo; male, iv, 1 mg/kg", "value": 34.3, "unit": "mL/min/kg"}, {"measurement": "Vd", "setting": "in vivo; male, iv, 1 mg/kg, Vss_obs Vss", "value": 10.2, "unit": "L/kg"}, {"measurement": "Vd", "setting": "in vivo; male, iv, 1 mg/kg, Vz_obs Vz", "value": 10.8, "unit": "L/kg"}, {"measurement": "bioavailability", "setting": "in vivo; male, po", "value": "~125", "unit": "%"}, {"measurement": "half-life", "setting": "in vivo; male, po", "value": 4.04, "unit": "h"}, {"measurement": "AUC(0-inf)", "setting": "in vivo; male, po, 5 mg/kg", "value": 2610, "unit": "ng·h/mL"}, {"measurement": "AUC(0-t)", "setting": "in vivo; male, po, 5 mg/kg", "value": 2580, "unit": "ng·h/mL"}, {"measurement": "Cmax", "setting": "in vivo; male, po, 5 mg/kg", "value": 890, "unit": "ng/mL"}, {"measurement": "MRT inf", "setting": "in vivo; male, po, 5 mg/kg", "value": 4.33, "unit": "h"}, {"measurement": "MRT last", "setting": "in vivo; male, po, 5 mg/kg", "value": 4.07, "unit": "h"}, {"measurement": "Tmax", "setting": "in vivo; male, po, 5 mg/kg", "value": 0.25, "unit": "h"}, {"measurement": "body weight gains and grooming patterns", "setting": "Balb-C mice", "value": "normal body weight gains and grooming patterns"}, {"measurement": "tolerability", "setting": "Balb-C mice", "value": "well tolerated"}]}]}
